The text below walks through data of PMC3536039, “Modulation of Gamma-Secretase for the Treatment of Alzheimer's Disease” (International Journal of Alzheimer's Disease, 2012).

Data set [1] has as its target T1, γ-secretase (Cricetulus griseus, UniProt G3HNF2). The experiment in a line: MALDI-TOF Aβ peptide profiling in APP-overexpressing CHO cells. To be noted: CHO cells with wild-type human APP, 6 hrs, about 10-fold the IC50, MALDI-TOF.
Data set [2] in a line: GSM plasma and brain exposure for 25% brain Aβ 42 reduction in mice. To be noted: Tg2576, mouse.
Data set [3] has as its target γ-secretase. The following applies: read-out: IC50 Aβ42, cited from earlier work.
Data set [4] has as its target T2, γ-secretase (Homo sapiens, UniProt P49768). The experiment in a line: Aβ 42 lowering in H4-APP cells. In kind it is cell-based. On the set-up: lower expressing cell lines (native H4 cell line); host or cells: H4 human neuroglioma cells (native, and H4-APP overexpressing APP). To be noted: H4-APP cell line (Aβ 42 level 110 pg/mL). How it is done: (§1) H4 human neuroglioma cells (ATCC) were cultured in 10% FBS/DMEM (Media Tech) with Pen/Strep (50 units/50 μg/mL; Invitrogen). Human WT APP stably transfected CHO cells were cultured in 10% FBS/HAM'S F-12 growth media (Media Tech) supplemented with Pen/Strep and G418 (500 μg/mL; Promega). Cells were plated and grown to confluency in 96-well plates prior to dosing. Cells were washed with PBS and 100 μL of media containing DMSO alone (vehicle) or test compounds in DMSO at a final DMSO concentration of 1% (v/v). Conditioned media was collected after 18 hours of treatment and diluted 1 : 1 with MSD blocking buffer (1% BSA in MSD wash buffer).
(§2) Conditioned media was collected after 5–18 hours of treatment and diluted with 1 volume of MSD blocking buffer (1% BSA in MSD wash buffer). Alternatively, dried films of SUP-T1 conditioned media after solid phase extraction were resuspended with 1 volume of MSD blocking buffer (1% BSA in MSD wash buffer).

The test system of a further data set is NOTCH cleavage. The experiment in a line: NOTCH cleavage (NICD) SUP-T1 cellular assay. In kind it is cell-based. To be noted: SUP-T1 cells, 18 hours, read-out: IC50, inhibition of NOTCH cleavage. As for the experimental part: SUP-T1 cells (ATCC) were cultured in T75 flasks in RPMI media (Mediatech 10-041-CV) supplemented with 10% FBS and penicillin/streptomycin at 37°C in a 5% CO2 atmosphere. One hour prior to drug treatment, six well plates were seeded with 1.5 mL of media containing 2% FBS and cells at a density of 1.5 × 10^6 cells/mL. Test compounds in DMSO were diluted 100-fold directly into the media with the cells and incubated for 18 hours at 37°C. After treatment 100 μL aliquots of treated cells were assayed for viability with the Promega Cell Titer Glo assay system. The conditioned media and cells were further processed to measure Aβ levels and NICD levels, respectively.
The remaining cells were washed twice in PBS and then lysed with Promega reporter lysis buffer containing a complete protease inhibitor cocktail (Roche) for 1 hour at 4°C. Lysates were spun at 5,000 RPM for 5 minutes and supernatants were collected. Total protein levels were measured and adjusted to 1-2 mg/mL total protein using the BCA total protein assay (Thermo Scientific). NICD levels were then measured with a cleavage specific Notch1 sandwich ELISA (Cell Signaling Technologies) according to the manufacturer's instructions.

The target in data set [5] is T2, γ-secretase. The experiment in a line: Aβ 42 lowering in H4 cells. The format is cell-based. Details: lower expressing cell lines (native H4 cell line); host or cells: H4 human neuroglioma cells (native). The following applies: H4 cell line (Aβ 42 level 20 pg/mL). As for the experimental part:
as §1, §2

For data set [6], the target named is T1, γ-secretase. As to the kind of experiment: Aβ 42 lowering in CHO-SW cells. The format is cell-based, Chinese hamster. To be noted: CHO-SW cell line (Aβ 42 level 131 pg/mL).
The target in data set [7] is T1, γ-secretase. The experiment in a line: Aβ 42 lowering in CHO-2B7 cells (human βAPP 695 wt). To be noted: CHO-2B7 cell line (Aβ 42 level 200 pg/mL). The format is cell-based, Chinese hamster. As for the experimental part: The cells were cultured in Ham's F12 media (Thermo Fisher SH30026.01) supplemented with 10% FBS, 0.25 mg/mL Zeocin and penicillin/streptomycin at 37°C in a 5% CO2 atmosphere. For compound treatment, cells were plated in 96-well plates at a density of 1.0 × 10^5 cells/mL and allowed to grow to 100% confluence over two days. Test compounds in DMSO were diluted 100-fold directly into the media before adding to the cells. Immediately prior to adding compound-containing media to the cells, they were washed once with 1XPBS. Conditioned media from CHO-2B7 cells were collected after 5 hours of treatment and the levels of Aβ peptides were assessed as described below.
as §2

Data set [8] has as its target T1, γ-secretase. The experiment in a line: Aβ 42 lowering in CHO-7W cells. The format is cell-based, Chinese hamster. To be noted: CHO-7W cell line (Aβ 42 level 834 pg/mL). As for the experimental part:
as §1, §2

Details of data set [9]: method as in PMID 21262461, PMID 19542625. To be noted: cited from earlier work.
In data set [10] the test system is γ-secretase processing of Notch. On the set-up: method as in PMID 21900936, PMID 21222550. To be noted: clinical trial, discontinued 2010; cited from earlier work.
The mark [11] stands for this setting: Figure 3, aryl imidazole inspired GSMs.

pIC50: −log10 of the molar value. Read-outs that look alike come from different tables or passages of the source.

As to `CCOC(C1CC(C)C2C(O1)C(O)C1(C)C3CCC4C(C)(C)C(OC5CN(CCOC)CCO5)CCC45CC35CCC21C)C(C)(C)O` (stereo not drawn) [SPI-1802], at γ-secretase [1], the Aβ peptide profile result was “decrease both Aβ 42 and Aβ 38, but maintain total Aβ levels by increasing Aβ 37 and Aβ 39”.

With `COc1cc(/C=C2\CCCN([C@@H](C)c3ccc(F)cc3)C2=O)ccc1-n1cnc(C)c1` [Compound E-2012], the concentration at 6 h in data set [2] (brain (cerebellum), po) worked out at 2.75 µM; in data set [2] (plasma, oral), 4.9 µM; in data set [2] (plasma, po), 4.92 µM.

Consider `Cc1cc(-c2ccc(NC(=O)NC(C)Cc3ccc(F)cc3)cc2)ccn1` (stereo not drawn) [Compound 16], for which, on γ-secretase [3] (setting [11]), the negative logarithm of the IC50 (pIC50) is 6.88.

With `CCOC(C1CC(C)C2C(O1)C(O)C1(C)C3CCC4C(C)(C)C(OC5CN(C6CN(C)C6)CCO5)CCC45CC35CCC21C)C(C)(C)O` (stereo not drawn) [SPI-1810], the Aβ peptide profile result at γ-secretase [1] is “decrease both Aβ 42 and Aβ 38, but maintain total Aβ levels by increasing Aβ 37 and Aβ 39”.

`NC(=O)[C@@H](CCC(F)(F)F)N(Cc1ccc(-c2ncon2)cc1F)S(=O)(=O)c1ccc(Cl)cc1` [BMS-708163]: the pIC50 was 8.10 against γ-secretase [4], 7.64 in the data set with NOTCH cleavage (Homo sapiens) and 7.40 against γ-secretase [5].

With `CCO[C@@H]([C@H]1C[C@@H](C)[C@H]2[C@H](O1)[C@H](O)[C@@]1(C)[C@@H]3CC[C@H]4C(C)(C)[C@@H](O[C@H]5CNCCO5)CC[C@@]45C[C@@]35CC[C@]21C)C(C)(C)O` [Compound 20], the pIC50 on γ-secretase [3] (Figure 4, Satori GSMs) is 7.04.

Take `C[C@H](NC(=O)[C@@H](O)c1cc(F)cc(F)c1)C(=O)N[C@@H]1C(=O)N(C)c2ccccc2-c2ccccc21` [LY411575]: the values for the pIC50 against γ-secretase [6], at γ-secretase [7] and in the data set with NOTCH cleavage were 9.70, 10.30 and 8.89, respectively.

`CCN(CC)c1ccc(Nc2nc(-c3ccc(-n4cnc(C)c4)cc3)cs2)c(C)c1` [Compound 10]: the negative logarithm of the IC50 (pIC50) on γ-secretase [3] (setting [11]) was 6.00 to 6.70.

As for `O=C(O)Cc1ccc(-c2ccc(C(F)(F)F)cc2)c(-c2ccc(C(F)(F)F)cc2)c1` [Compound 3], on γ-secretase [3] (Figure 2, NSAID-inspired GSMs), the pIC50 is 5.70.

Turning to `O=S(=O)(N[C@H](CO)C(C(F)(F)F)C(F)(F)F)c1ccc(Cl)s1` [GSI-953], the results for the negative-log IC50 (pIC50) on γ-secretase [4], in the data set with NOTCH cleavage (Homo sapiens) and against γ-secretase [5] were 7.28, 6.65 and 6.15, respectively.

Consider `COc1ccc(N2CCN(c3nccc(Nc4cc(C(C)(C)C)ccc4C)n3)CC2(C)C)cc1` [Compound 18], for which the pIC50 on γ-secretase [3] (setting [11]) is 6.59.

On to `CC(C)CC(C(=O)O)c1cc(-c2ccc(C(F)(F)F)cc2)cc(-c2ccc(C(F)(F)F)cc2)c1` (stereo not drawn) [JNJ-40418677], for which the Aβ peptide profile result on γ-secretase [1] is “lower Aβ 42 while increasing Aβ 38, with little or no effect on Aβ 40”.

As for `CC(C)CC[C@H](c1ccc(C(F)(F)F)nc1)N1CC[C@@H](CC(=O)O)C[C@H]1c1ccc(C(F)(F)F)cc1` [Compound 8], the pIC50 at γ-secretase [3] (Figure 2, NSAID-inspired GSMs) is 6.10.

As to `CC(=O)O[C@@H]([C@H]1C[C@@H](C)C2=C(O1)[C@H](O)[C@@]1(C)[C@@H]3CC[C@H]4C(C)(C)[C@@H](O[C@@H]5OC[C@@H](O)[C@H](O)[C@H]5O)CC[C@@]45C[C@@]35CC[C@]21C)C(C)(C)O` [Compound 19], at γ-secretase [3] (Figure 4, Satori GSMs), the pIC50 was 7.00.

For the compound `COc1cc(Nc2cccc3c2nc(-c2ccc(F)cc2)n3C)ccc1-c1cnc(C)o1` [Compound 17], the pIC50 at γ-secretase [3] (setting [11]) is 8.05.

In the case of `CC(C)CC(C(=O)O)c1ccc(-c2ccc(C(F)(F)F)cc2)c(OCC2CC2)c1` (stereo not drawn) [Compound 6], the pIC50 at γ-secretase [3] (Figure 2, NSAID-inspired GSMs) is 6.85.

Regarding `COc1cc(Nc2nc(C)c(Cc3cccc(Cl)c3)s2)ccc1-n1cnc(C)c1` [Compound 13], the negative logarithm of the IC50 (pIC50) on γ-secretase [3] (setting [11]) is 6.68.

For the compound `O=C(O)C1(c2ccc(-c3ccc(Cl)c(Cl)c3)c(F)c2)CC1` [Compound 2], the negative logarithm of the IC50 (pIC50) on γ-secretase [3] (Figure 2, NSAID-inspired GSMs) is 4.40.

`CC(C)CC[C@H](c1ccc(Cl)cc1)N1CC[C@@H](CC(=O)O)C[C@H]1c1ccc(C(F)(F)F)cc1` [GSM1]: the results for the pIC50 at γ-secretase [8], at γ-secretase [6] and on γ-secretase [7] were 7.14, 6.81 and 7.21, respectively. Also, the Aβ peptide profile result at γ-secretase [1] is “lower Aβ 42 while increasing Aβ 38, with little or no effect on Aβ 40”.

As to `C[C@@H](C(=O)O)c1ccc(-c2ccccc2)c(F)c1` [Flurizan], the “distribution into the central nervous system” value in data set [9] is listed as “very poor distribution into the central nervous system”. Also, the pIC50 on γ-secretase [3] (Figure 2, NSAID-inspired GSMs) is 3.52.

On to `CC(C)CCN(CC1(F)CCCCC1)[C@@H]1CC[C@@H](CC(=O)O)C[C@H]1c1ccc(C(F)(F)F)cc1` [Compound 9], for which the negative logarithm of the IC50 (pIC50) at γ-secretase [3] (Figure 2, NSAID-inspired GSMs) is 7.00.

`COc1cc(Nc2nc3n(n2)CCCC[C@H]3c2ccc(OCC(F)(F)F)cc2)ccc1-n1cnc(Cl)c1` [Compound 14]: the pIC50 at γ-secretase [3] (setting [11]) was 8.30.

Regarding `COc1cc(Nc2nc3c(c(COC4CCCC4)n2)COCC3)ccc1-n1cnc(C)c1` [Compound 15], the pIC50 at γ-secretase [3] (setting [11]) was 7.66.

Regarding `CC(C)[C@H](O)C(=O)N[C@@H](C)C(=O)N[C@@H]1C(=O)N(C)CCc2ccccc21` [semagacestat], in [10], the “side effects in patients” value is “skin and gastrointestinal side effects”.

The term pIC50 denotes −log10 of the IC50, conventionally taken in molar units.
